Reference: patent US8906925B2, “Pyrido[4,3-B]indoles containing rigid moieties” (Medivation Technologies, Inc., priority 2008, dated 2014)
Read-outs that look alike come from different tables or passages of the source.

Legend:
[1] = biological target: T1, human recombinant adrenergic α1D receptor (Homo sapiens, UniProt P25100); assay: Adrenergic α1D radioligand binding ([3H]Prozosin); conditions: compound at 1 μM
T1 construct: expressed in transfected cells; host or cells: human embryonic kidney (HEK-293) cells
T1 sequence (P25100 1-572): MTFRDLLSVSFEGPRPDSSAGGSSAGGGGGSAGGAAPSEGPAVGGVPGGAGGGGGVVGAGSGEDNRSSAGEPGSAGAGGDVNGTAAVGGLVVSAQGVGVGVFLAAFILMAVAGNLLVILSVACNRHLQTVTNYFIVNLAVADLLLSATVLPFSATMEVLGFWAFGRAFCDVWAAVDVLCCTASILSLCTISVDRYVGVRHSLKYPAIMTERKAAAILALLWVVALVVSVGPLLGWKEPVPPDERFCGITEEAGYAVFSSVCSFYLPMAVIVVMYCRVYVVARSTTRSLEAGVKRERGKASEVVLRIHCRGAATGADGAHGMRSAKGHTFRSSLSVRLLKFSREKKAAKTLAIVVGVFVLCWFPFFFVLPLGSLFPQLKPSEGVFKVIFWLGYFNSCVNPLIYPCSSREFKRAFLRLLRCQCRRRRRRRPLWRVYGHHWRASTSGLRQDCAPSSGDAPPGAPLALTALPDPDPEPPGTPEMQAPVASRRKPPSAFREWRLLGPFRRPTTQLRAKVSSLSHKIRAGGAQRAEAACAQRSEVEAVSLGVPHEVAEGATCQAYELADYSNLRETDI
Protocol: Compounds of invention were incubated with 0.6 nM [^3H]Prozosin for 60 min. at 25° C. Non-specific binding was estimated in the presence of 10 μM phentolamine. Receptor proteins were filtered and washed, the filters were then counted to determine [^3H]Prozosin specifically bound. Compounds were screened at 1 μM or lower, using 1% DMSO as vehicle. Biochemical assay results are presented as the percent inhibition of specific binding in Table 9.

[2] = biological target: T2, human recombinant serotonin (5-Hydroxytryptamine) 5-HT2A receptor (Homo sapiens, UniProt P28223); assay: Serotonin 5-HT2A radioligand binding ([3H]Ketanserin); conditions: read-out: Inhibition of ligand binding, Serotonin 5-HT2A (percent inhibition of specific binding), compound at 1 μM
T2 construct: expressed in transfected cells; host or cells: Chinese hamster ovary (CHO-K1) cells
T2 sequence (P28223 whole entry): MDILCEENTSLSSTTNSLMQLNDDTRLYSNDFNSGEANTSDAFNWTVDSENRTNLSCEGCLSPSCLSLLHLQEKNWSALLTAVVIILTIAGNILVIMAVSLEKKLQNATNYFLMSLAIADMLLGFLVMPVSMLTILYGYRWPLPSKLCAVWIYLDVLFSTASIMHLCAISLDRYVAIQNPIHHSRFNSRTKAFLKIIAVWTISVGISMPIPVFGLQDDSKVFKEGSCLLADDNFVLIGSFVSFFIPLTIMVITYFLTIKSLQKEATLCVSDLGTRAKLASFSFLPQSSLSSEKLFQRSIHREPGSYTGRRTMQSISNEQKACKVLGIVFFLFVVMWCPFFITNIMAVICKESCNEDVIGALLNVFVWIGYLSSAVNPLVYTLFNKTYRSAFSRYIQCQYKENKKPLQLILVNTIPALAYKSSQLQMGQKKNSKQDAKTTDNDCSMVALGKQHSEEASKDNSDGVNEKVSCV
Protocol: Compounds of the invention were incubated with 0.5 nM [^3H]Ketanserin for 60 min. at 25° C. Non-specific binding was estimated in the presence of 1 μM Mianserin. Receptor proteins were filtered and washed, the filters were then counted to determine [^3H]Ketanserin specifically bound.

[3] = biological target: human recombinant serotonin (5-Hydroxytryptamine) 5-HT7 receptor (Homo sapiens, UniProt P34969); assay: Serotonin 5-HT7 radioligand binding ([3H]LSD); conditions: compound at 1 μM; for inhibition at 1 µM: read-out: Inhibition of ligand binding, Serotonin 5-HT7 (percent inhibition of specific binding)
Chain of human recombinant serotonin (5-Hydroxytryptamine) 5-HT7 receptor (P34969 whole entry): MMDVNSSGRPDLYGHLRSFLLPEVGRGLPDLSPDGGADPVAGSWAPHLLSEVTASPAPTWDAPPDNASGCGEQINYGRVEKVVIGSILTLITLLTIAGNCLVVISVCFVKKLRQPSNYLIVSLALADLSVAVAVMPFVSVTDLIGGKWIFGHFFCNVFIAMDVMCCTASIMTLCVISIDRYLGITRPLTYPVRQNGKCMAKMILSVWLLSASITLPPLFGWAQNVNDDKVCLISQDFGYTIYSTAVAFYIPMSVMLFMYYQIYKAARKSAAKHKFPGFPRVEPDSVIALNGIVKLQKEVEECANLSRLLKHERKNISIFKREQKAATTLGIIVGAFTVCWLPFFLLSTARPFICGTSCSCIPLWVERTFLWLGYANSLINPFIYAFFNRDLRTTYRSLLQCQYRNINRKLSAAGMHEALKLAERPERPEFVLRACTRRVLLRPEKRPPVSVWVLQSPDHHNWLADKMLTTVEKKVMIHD
From the text: Receptor proteins were filtered and washed, the filters were then counted to determine [^3H]LSD specifically bound.

[4] = biological target: human dopamine D2L receptor (Homo sapiens, UniProt P14416); assay: Dopamine D2L radioligand binding ([3H]Spiperone); conditions: compound at 1 μM
Chain of human dopamine D2L receptor (P14416 whole entry): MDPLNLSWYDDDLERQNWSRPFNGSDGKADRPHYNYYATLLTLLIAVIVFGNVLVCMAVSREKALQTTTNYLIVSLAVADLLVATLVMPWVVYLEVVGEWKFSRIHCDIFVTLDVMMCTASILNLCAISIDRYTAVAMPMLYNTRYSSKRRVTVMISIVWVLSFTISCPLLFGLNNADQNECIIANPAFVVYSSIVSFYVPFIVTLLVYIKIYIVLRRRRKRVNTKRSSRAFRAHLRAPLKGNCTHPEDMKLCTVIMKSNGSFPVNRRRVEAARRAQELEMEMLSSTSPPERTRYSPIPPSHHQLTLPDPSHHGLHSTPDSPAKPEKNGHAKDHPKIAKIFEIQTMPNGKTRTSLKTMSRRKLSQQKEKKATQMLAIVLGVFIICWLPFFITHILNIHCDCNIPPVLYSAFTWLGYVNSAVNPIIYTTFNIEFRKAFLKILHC
From the text: Non-specific binding was estimated in the presence of […] Haloperidol. Receptor proteins were filtered and washed, the filters were then counted to determine [^3H]Spiperone specifically bound. […] Biochemical assay results are presented as the percent inhibition of specific binding in Table 9.

[5] = biological target: T3, human recombinant serotonin (5-Hydroxytryptamine) 5-HT2C receptor (Homo sapiens, UniProt P28335); assay: Serotonin 5-HT2C radioligand binding ([3H]Mesulergine); conditions: compound at 1 μM; read-out: Inhibition of ligand binding, Serotonin 5-HT2C (percent inhibition of specific binding)
T3 construct: expressed in transfected cells; host or cells: Chinese hamster ovary (CHO-K1) cells
T3 sequence (P28335 33-458): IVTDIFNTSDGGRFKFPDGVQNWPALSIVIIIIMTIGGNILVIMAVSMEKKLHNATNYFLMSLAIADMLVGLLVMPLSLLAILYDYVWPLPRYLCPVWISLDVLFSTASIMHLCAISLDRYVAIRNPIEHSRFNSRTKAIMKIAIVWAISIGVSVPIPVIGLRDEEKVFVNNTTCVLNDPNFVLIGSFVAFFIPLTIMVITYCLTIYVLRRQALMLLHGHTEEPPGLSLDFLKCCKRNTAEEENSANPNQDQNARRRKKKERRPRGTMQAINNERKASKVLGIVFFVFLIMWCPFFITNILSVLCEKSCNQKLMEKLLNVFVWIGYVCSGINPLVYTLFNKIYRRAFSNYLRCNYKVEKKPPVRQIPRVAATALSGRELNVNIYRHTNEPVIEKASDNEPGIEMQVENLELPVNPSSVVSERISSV
Procedure, shortened: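 Compounds tested at 1 μM or lower (1% DMSO vehicle) for displacement of 1 nM [3H]Mesulergine over 60 min at 25° C. Specific binding determined by filtration counting, with 1 μM Mianserin defining non-specific binding; values are percent inhibition.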

[6] = biological target: histamine receptor H1 (Homo sapiens, UniProt P35367); assay: Histamine H1 radioligand binding ([3H]Pyrilamine); conditions: read-out: Histamine Binding (1 μM) H1, percent inhibition of specific binding, 1 μM
Chain of histamine receptor H1 (P35367 whole entry): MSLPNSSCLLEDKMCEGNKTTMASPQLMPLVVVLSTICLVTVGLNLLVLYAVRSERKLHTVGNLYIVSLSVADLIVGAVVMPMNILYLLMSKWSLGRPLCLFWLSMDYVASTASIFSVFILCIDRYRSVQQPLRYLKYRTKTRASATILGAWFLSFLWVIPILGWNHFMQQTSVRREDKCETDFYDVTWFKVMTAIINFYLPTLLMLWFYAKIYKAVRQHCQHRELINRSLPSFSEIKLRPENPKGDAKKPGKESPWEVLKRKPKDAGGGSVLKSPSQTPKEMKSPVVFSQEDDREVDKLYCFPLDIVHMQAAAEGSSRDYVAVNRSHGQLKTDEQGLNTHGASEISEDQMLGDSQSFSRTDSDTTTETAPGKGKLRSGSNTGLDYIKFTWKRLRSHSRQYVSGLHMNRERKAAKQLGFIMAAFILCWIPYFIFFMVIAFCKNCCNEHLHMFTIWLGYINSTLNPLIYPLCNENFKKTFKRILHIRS
Procedure, shortened: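 Values are percent inhibition of specific [3H]pyrilamine (1.2 nM) binding with compounds at ≤1 μM (1% DMSO vehicle); 180 min incubation at 25 °C, pH 7.4 Tris buffer, on CHO-expressed human H1 receptor; 1 μM pyrilamine defined nonspecific binding, bound ligand counted after filtration.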

[7] = read-out: Inhibition of ligand binding, Adrenergic α1D (percent inhibition of specific binding)
[8] = […] [3H]Spiperone, read-out: Inhibition of ligand binding, Dopamine D2L (percent inhibition of specific binding)

`Cc1ccc2c(c1)c1c(n2C#Cc2ccc(C)nc2)CCN(C)C1` [Compound No. 476, 2,8-dimethyl-5-((6-methylpyridin-3-yl)ethynyl)-2,3,4,5-tetrahydro-1H-pyrido[4,3-b]indole] was tested. Which inhibition at 1 µM [1, 7] did it give?
Its inhibition at 1 µM is 95%.

What about the inhibition at 1 µM [2] of the same molecule?
Its inhibition at 1 µM is 100%.

What about the “Inhibition of ligand binding, Serotonin 5-HT7 (percent inhibition of specific binding)” value ([3]; 1 µM) of the same molecule?
The value was 92%.

What about the inhibition at 1 µM [3] of the same molecule?
Its inhibition at 1 µM is 90%.

What about the inhibition at 1 µM [4, 8] of the same molecule?
The inhibition at 1 µM was 19%.

And the inhibition at 1 µM [5]?
Its inhibition at 1 µM is 95%.

What about the inhibition at 1 µM [6] of the same molecule?
The inhibition at 1 µM was 27%.

Which results are given for `COc1ccc(C#Cn2c3c(c4cc(Cl)ccc42)CN(C)CC3)cc1F` [Compound No. 477, 8-chloro-5-((3-fluoro-4-methoxyphenyl)ethynyl)-2-methyl-2,3,4,5-tetrahydro-1H-pyrido[4,3-b]indole]?
inhibition at 1 µM [1, 7]: 79%; inhibition at 1 µM [2]: 95%; inhibition at 1 µM [3]: 65%; inhibition at 1 µM [4, 8]: 25%; inhibition at 1 µM [5]: 99%; inhibition at 1 µM [6]: 17%

`Cc1ccc2c(c1)c1c(n2C#Cc2ccc(F)cc2)CCN(C)C1` [Compound No. 478, 5-((4-fluorophenyl)ethynyl)-2,8-dimethyl-2,3,4,5-tetrahydro-1H-pyrido[4,3-b]indole] was tested. Which inhibition at 1 µM [1, 7] did it give?
Its inhibition at 1 µM is 92%.

And the inhibition at 1 µM [2]?
Its inhibition at 1 µM is 99%.

And the inhibition at 1 µM [3]?
Its inhibition at 1 µM is 96%.

And the inhibition at 1 µM [4, 8]?
Its inhibition at 1 µM is 89%.

What about the inhibition at 1 µM [5] of the same molecule?
Its inhibition at 1 µM is 110%.

And the inhibition at 1 µM [6]?
The inhibition at 1 µM was 28%.

What does the source list for `COC(=O)c1ccc2c(c1)c1c(n2C#Cc2ccc(F)cc2)CCN(C)C1` [Compound No. 479, methyl 5-((4-fluorophenyl)ethynyl)-2-methyl-2,3,4,5-tetrahydro-1H-pyrido[4,3-b]indole-8-carboxylate]?
inhibition at 1 µM [1, 7]: 55%; inhibition at 1 µM [2]: 78%; inhibition at 1 µM [3]: 17%; inhibition at 1 µM [4, 8]: 72%; inhibition at 1 µM [5]: 69%; inhibition at 1 µM [6]: 11%

For `CN1CCc2c(c3cc(Cl)ccc3n2C#Cc2ccc(Cl)cc2)C1` [Compound No. 480, 8-chloro-5-((4-chlorophenyl)ethynyl)-2-methyl-2,3,4,5-tetrahydro-1H-pyrido[4,3-b]indole], which inhibition at 1 µM [1, 7] is on record?
The inhibition at 1 µM was 68%.

What about the inhibition at 1 µM [2] of the same molecule?
Its inhibition at 1 µM is 98%.

What about the inhibition at 1 µM [3] of the same molecule?
Its inhibition at 1 µM is 84%.

And the inhibition at 1 µM [4, 8]?
The inhibition at 1 µM was 18%.

And the inhibition at 1 µM [5]?
Its inhibition at 1 µM is 102%.

What about the inhibition at 1 µM [6] of the same molecule?
The inhibition at 1 µM was 40%.

Which inhibition at 1 µM [1, 7] does the source give for `Cc1ccc2c(c1)c1c(n2C#Cc2ccc(Cl)cc2)CCN(C)C1` [Compound No. 481, 5-((4-chlorophenyl)ethynyl)-2,8-dimethyl-2,3,4,5-tetrahydro-1H-pyrido[4,3-b]indole] here?
Its inhibition at 1 µM is 77%.

And the inhibition at 1 µM [2]?
The inhibition at 1 µM was 101%.

What about the inhibition at 1 µM [3] of the same molecule?
The inhibition at 1 µM was 84%.

What about the inhibition at 1 µM [4, 8] of the same molecule?
Its inhibition at 1 µM is 24%.

And the inhibition at 1 µM [5]?
The inhibition at 1 µM was 104%.

And the inhibition at 1 µM [6]?
The inhibition at 1 µM was 12%.

For `CN1CCc2c(c3cc(C(=O)O)ccc3n2C#Cc2ccc(F)cc2)C1` [Compound No. 482, 5-((4-fluorophenyl)ethynyl)-2-methyl-2,3,4,5-tetrahydro-1H-pyrido[4,3-b]indole-8-carboxylic acid], which inhibition at 1 µM [1, 7] is on record?
Its inhibition at 1 µM is 21%.

What about the inhibition at 1 µM [2] of the same molecule?
The inhibition at 1 µM was -8%.

What about the inhibition at 1 µM [3] of the same molecule?
Its inhibition at 1 µM is 22%.

What about the inhibition at 1 µM [4, 8] of the same molecule?
The inhibition at 1 µM was -2%.

What about the inhibition at 1 µM [5] of the same molecule?
The inhibition at 1 µM was -12%.

What about the inhibition at 1 µM [6] of the same molecule?
Its inhibition at 1 µM is 13%.

Which inhibition at 1 µM [1, 7] does the source give for `CNC(=O)c1ccc2c(c1)c1c(n2C#Cc2ccc(F)cc2)CCN(C)C1` [Compound No. 483, 5-((4-fluorophenyl)ethynyl)-N,2-dimethyl-2,3,4,5-tetrahydro-1H-pyrido[4,3-b]indole-8-carboxamide] here?
The inhibition at 1 µM was 59%.

And the inhibition at 1 µM [2]?
The inhibition at 1 µM was 34%.

What about the inhibition at 1 µM [3] of the same molecule?
The inhibition at 1 µM was 16%.

And the inhibition at 1 µM [4, 8]?
Its inhibition at 1 µM is 37%.

What about the inhibition at 1 µM [5] of the same molecule?
The inhibition at 1 µM was 35%.

And the inhibition at 1 µM [6]?
Its inhibition at 1 µM is -1%.

For `C/C(=C\n1c2c(c3cc(Cl)ccc31)CN(C)CC2)c1ccccc1` [compound 106, (E)-8-chloro-2,3,4,5-tetrahydro-2-methyl-5-(2-phenylprop-1-enyl)-1H-pyrido[4,3-b]indole], which inhibition at 1 µM ([1]; percent inhibition of specific binding, read-out: Inhibition of ligand binding, Adrenergic α1D) is on record?
The inhibition at 1 µM was 92%.

And the inhibition at 1 µM [2]?
Its inhibition at 1 µM is 98%.

What about the inhibition at 1 µM [3] of the same molecule?
Its inhibition at 1 µM is 98%.

What about the inhibition at 1 µM ([4]; percent inhibition of specific binding, read-out: Inhibition of ligand binding, Dopamine D2L) of the same molecule?
The inhibition at 1 µM was 90%.

What about the inhibition at 1 µM [5] of the same molecule?
Its inhibition at 1 µM is 98%.

And the inhibition at 1 µM [6]?
Its inhibition at 1 µM is 84%.
